Test results: publication PMC6934184, “Selective DNA-PKcs inhibition extends the therapeutic index of localized radiotherapy and chemotherapy” (The Journal of Clinical Investigation, 2019)

Target: T1, PRKCB2 (PKC beta II) (Homo sapiens, UniProt P05771)
T1 construct: purchased Thermo Fisher Scientific (Life Technologies) SelectScreen
Assay: SelectScreen Z'LYTE
Format: biochemical
Summary of the method: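 SelectScreen broad panel; activity (Z'LYTE, Adapta) plus binding formats. ATP: Km app for CSF1R Z'LYTE; 10 for CAMK1 Adapta. Readout = % per kinase.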

T1 sequence (P05771 1-673 isoform P05771-2): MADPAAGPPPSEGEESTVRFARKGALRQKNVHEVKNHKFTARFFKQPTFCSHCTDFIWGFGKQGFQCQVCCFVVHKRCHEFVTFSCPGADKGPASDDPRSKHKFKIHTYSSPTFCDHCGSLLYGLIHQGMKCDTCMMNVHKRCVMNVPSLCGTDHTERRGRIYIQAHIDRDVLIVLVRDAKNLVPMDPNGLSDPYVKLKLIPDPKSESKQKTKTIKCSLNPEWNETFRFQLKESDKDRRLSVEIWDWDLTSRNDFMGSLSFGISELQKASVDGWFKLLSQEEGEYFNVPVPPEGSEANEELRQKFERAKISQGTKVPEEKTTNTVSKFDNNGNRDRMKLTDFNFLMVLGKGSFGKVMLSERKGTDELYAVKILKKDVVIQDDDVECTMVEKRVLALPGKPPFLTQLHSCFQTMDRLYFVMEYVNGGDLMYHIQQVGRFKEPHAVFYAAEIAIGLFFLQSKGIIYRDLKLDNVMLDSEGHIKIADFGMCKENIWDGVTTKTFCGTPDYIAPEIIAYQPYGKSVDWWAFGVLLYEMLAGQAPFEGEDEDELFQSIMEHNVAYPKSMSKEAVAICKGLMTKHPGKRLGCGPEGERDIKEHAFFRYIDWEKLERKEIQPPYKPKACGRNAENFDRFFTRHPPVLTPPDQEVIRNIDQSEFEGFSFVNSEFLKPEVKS

CN(C(=O)CN1CCOCC1)c1ccc2sc3c(-c4cccc5c(=O)cc(N6CC7CCC(C6)O7)oc45)cccc3c2c1 [NU5455] was tested, and the inhibition at 1 µM was -9.6%.
